The target of the assay is T1, SIRT1 (Homo sapiens, UniProt Q96EB6).
T1 sequence (Q96EB6 1-747): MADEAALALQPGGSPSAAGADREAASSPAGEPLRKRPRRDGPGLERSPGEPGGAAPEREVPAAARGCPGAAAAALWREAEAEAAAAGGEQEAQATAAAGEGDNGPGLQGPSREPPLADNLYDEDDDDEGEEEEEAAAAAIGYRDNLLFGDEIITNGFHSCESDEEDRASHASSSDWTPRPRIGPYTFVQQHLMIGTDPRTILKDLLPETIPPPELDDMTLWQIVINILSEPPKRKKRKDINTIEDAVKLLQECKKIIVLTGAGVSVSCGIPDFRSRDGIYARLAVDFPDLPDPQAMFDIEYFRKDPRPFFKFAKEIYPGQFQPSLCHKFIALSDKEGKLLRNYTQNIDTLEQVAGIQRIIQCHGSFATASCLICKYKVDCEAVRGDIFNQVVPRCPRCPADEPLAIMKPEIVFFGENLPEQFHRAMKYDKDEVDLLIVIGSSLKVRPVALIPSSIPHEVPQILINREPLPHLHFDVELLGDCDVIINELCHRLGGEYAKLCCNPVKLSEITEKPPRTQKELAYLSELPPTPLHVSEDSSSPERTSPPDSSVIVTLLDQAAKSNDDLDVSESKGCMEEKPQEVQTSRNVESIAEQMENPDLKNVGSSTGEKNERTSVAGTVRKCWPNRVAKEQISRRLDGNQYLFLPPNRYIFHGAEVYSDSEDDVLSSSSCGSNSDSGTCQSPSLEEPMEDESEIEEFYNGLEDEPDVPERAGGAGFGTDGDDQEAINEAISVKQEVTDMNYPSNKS
Briefly: Trp mass spectrometry assay of SIRT1 activation (Ac-R-H-K-K(Ac)-W-NH2 peptide). It is filed as biochemical. The conditions noted are these: for Emax: 25 min, read-out: TRP MAX RESP (percent maximum fold activation). Here is the method:
The Trp mass spectrometry assay was conducted as follows. […] The SIRT1 protein was obtained by cloning the SirT1 gene into a T7-promoter containing vector, which was then expressed in BL21(DE3) bacterial cells and purified as described in further detail below. Test compound was added at varying concentrations to this reaction mixture and the resulting reactions were monitored. After the 25 minute incubation with SIRT1, 10 μL of 10% formic acid was added to stop the reaction. The resulting reactions were sealed and frozen for later mass spec analysis. The relative SIRT1 activity was then determined by measuring the amount of O-acetyl-ADP-ribose (OAADPR) formed (or, alternatively, the amount of deacetylated Trp peptide generated) by the NAD-dependent sirtuin deacetylation reaction in the presence of varying concentrations of the test compound versus control reactions lacking the test compound. The degree to which the test agent activated deacetylation by SIRT1 was expressed as EC1.5 (i.e., the concentration of compound required to increase SIRT1 activity by 50% over the control lacking test compound), and Percent Maximum Activation (i.e., the maximum activity relative to control (100%) obtained for the test compound).
This time point was the same as that used for test compounds and, within the linear range, the endpoint represents a change in velocity.
For the above assay, SIRT1 protein was expressed and purified as follows. The SirT1 gene was cloned into a T7-promoter containing vector and transformed into BL21(DE3). The protein was expressed by induction with 1 mM IPTG as an N-terminal His-tag fusion protein at 18° C. overnight and harvested at 30,000×g. Cells were lysed with lysozyme in lysis buffer (50 mM Tris-HCl, 2 mM Tris[2-carboxyethyl]phosphine (TCEP), 10 μM ZnCl2, 200 mM NaCl) and further treated with sonication for 10 min for complete lysis. The protein was purified over a Ni-NTA column (Amersham) and fractions containing pure protein were pooled, concentrated and run over a sizing column (Sephadex S200 26/60 global). The peak containing soluble protein was collected and run on an Ion-exchange column (MonoQ). Gradient elution (200 mM-500 mM NaCl) yielded pure protein. This protein was concentrated and dialyzed against dialysis buffer (20 mM Tris-HCl, 2 mM TCEP) overnight. The protein was aliquoted and frozen at −80° C. until further use.
“NT” means not tested; “ND” means not determinable.

Where [1] appears, read: Trp peptide 0.5 μM, 120 μM βNAD+, 10 nM SIRT1, 25 min at 25° C., relative to control (100%).
[2] abbreviates: Trp peptide 0.5 μM, 120 μM βNAD+, 10 nM SIRT1, 25 min at 25° C.

Like-named read-outs stand apart in the source and are kept apart here.

Consider `Cn1cnc(NC(=O)N2c3nc(C(=O)NCC(F)(F)F)ccc3N3CC[C@H]2C3)cc1=O` [Example 120, (4S)—N5-(1-methyl-6-oxo-1,6-dihydropyrimidin-4-yl)-N7-(2,2,2-trifluoroethyl)-3,4-dihydro-1,4-methanopyrido[2,3-b][1,4]diazepine-5,7(2H)-dicarboxamide], for which, under setting [1], the Emax is over 150%. Under setting [2], the “TRP Activity (EC1.5, concentration of test compound that results in 150% activation of SIRT1)” value is reported as “B (EC1.5 1-25 μM)”.

On to `NC(CNC(=O)c1ccc2c(n1)N(C(=O)Nc1ccccn1)[C@H]1CCN2C1)C(F)(F)F` (single isomer, unassigned) [Example 49], for which the Emax under setting [1] is over 150%. The “TRP Activity (EC1.5, concentration of test compound that results in 150% activation of SIRT1)” value under setting [2] is listed as “B (EC1.5 1-25 μM)”.

For `O=C(NC1CC1(F)F)c1ccc2c(n1)N(C(=O)Nc1cnccn1)[C@H]1CCN2C1` (single isomer, unassigned) [Example 273], the “TRP Activity (EC1.5, concentration of test compound that results in 150% activation of SIRT1)” value under setting [2] is listed as “B (EC1.5 1-25 μM)”. For the same molecule, under setting [1], the “TRP MAX RESP (percent maximum fold activation)” value is “A (Fold activation≥150%)”.

`O=C(NCC(F)(F)F)c1ccc2c(n1)N(C(=O)Nc1cc(OCCO)ccn1)[C@H]1CCN2C1` [Example 161, (4S)—N5-(4-(2-hydroxyethoxy)pyridin-2-yl)-N7-(2,2,2-trifluoroethyl)-3,4-dihydro-1,4-methanopyrido[2,3-b][1,4]diazepine-5,7(2H)-dicarboxamide]: the Emax under setting [1] is over 150%. Moreover, the “TRP Activity (EC1.5, concentration of test compound that results in 150% activation of SIRT1)” value under setting [2] is listed as “A (EC1.5<1 μM)”.

Consider `Cc1nn(C)cc1-c1ccnc(NC(=O)N2c3nc(C(=O)N[C@H](C)C(F)(F)F)ccc3N3CC[C@H]2C3)c1` [Example 84, (4S)—N5-(4-(1,3-dimethyl-1H-pyrazol-4-yl)pyridin-2-yl)-N7-((R)-1,1,1-trifluoropropan-2-yl)-3,4-dihydro-1,4-methanopyrido[2,3-b][1,4]diazepine-5,7(2H)-dicarboxamide], for which, under setting [1], the Emax was over 150%. The “TRP Activity (EC1.5, concentration of test compound that results in 150% activation of SIRT1)” value under setting [2] was “A (EC1.5<1 μM)”.

`O=C(NCC(F)(F)F)c1ccc2c(n1)N(C(=O)Nc1cnc(OC[C@H](O)CO)cn1)[C@H]1CCN2C1` [Example 95, (4S)—N5-(5-((R)-2,3-dihydroxypropoxy)pyrazin-2-yl)-N7-(2,2,2-trifluoroethyl)-3,4-dihydro-1,4-methanopyrido[2,3-b][1,4]diazepine-5,7(2H)-dicarboxamide]: the Emax under setting [1] is over 150%. Under setting [2], the “TRP Activity (EC1.5, concentration of test compound that results in 150% activation of SIRT1)” value is recorded as “A (EC1.5<1 μM)”.

For the molecule `COc1cc(C(=O)NCC(F)(F)F)nc2c1N1CC[C@@H](C1)N2C(=O)Nc1ccccn1` [Example 286, (4S)-9-methoxy-N5-(pyridin-2-yl)-N7-(2,2,2-trifluoroethyl)-3,4-dihydro-1,4-methanopyrido[2,3-b][1,4]diazepine-5,7(2H)-dicarboxamide], the Emax is over 150%. Moreover, under setting [2], the “TRP Activity (EC1.5, concentration of test compound that results in 150% activation of SIRT1)” value is “A (EC1.5<1 μM)”.

For `NCC(F)(F)CNC(=O)c1ccc2c(n1)N(C(=O)Nc1ccccn1)[C@H]1CCN2C1` [Example 94, (4S)—N7-(3-amino-2,2-difluoropropyl)-N5-(pyridin-2-yl)-3,4-dihydro-1,4-methanopyrido[2,3-b][1,4]diazepine-5,7(2H)-dicarboxamide], under setting [1], the Emax was over 150%. Besides, under setting [2], the “TRP Activity (EC1.5, concentration of test compound that results in 150% activation of SIRT1)” value is “B (EC1.5 1-25 μM)”.

`C[C@H](NC(=O)c1ccc2c(n1)N(C(=O)Nc1cc(-c3cnco3)ccn1)[C@H]1CCN2C1)C(F)(F)F` [Example 127, (4S)—N5-(4-(oxazol-5-yl)pyridin-2-yl)-N7-((S)-1,1,1-trifluoropropan-2-yl)-3,4-dihydro-1,4-methanopyrido[2,3-b][1,4]diazepine-5,7(2H)-dicarboxamide]: under setting [1], the Emax is over 150%. Under setting [2], the “TRP Activity (EC1.5, concentration of test compound that results in 150% activation of SIRT1)” value is recorded as “B (EC1.5 1-25 μM)”.

Consider `Cc1c[nH]c2nc(NC(=O)N3c4nc(C(=O)N[C@H](C)C(F)(F)F)ccc4N4CC[C@H]3C4)ncc12` [Example 175, (4S)—N5-(5-methyl-7H-pyrrolo[2,3-d]pyrimidin-2-yl)-N7-((R)-1,1,1-trifluoropropan-2-yl)-3,4-dihydro-1,4-methanopyrido[2,3-b][1,4]diazepine-5,7(2H)-dicarboxamide], for which, under setting [1], the Emax was over 150%. Besides, the “TRP Activity (EC1.5, concentration of test compound that results in 150% activation of SIRT1)” value under setting [2] is “A (EC1.5<1 μM)”.

As to `CC(C)(O)CNC(=O)c1ccc2c(n1)N(C(=O)Nc1ccccn1)[C@H]1CCN2C1` [Example 202, (4S)—N7-(2-hydroxy-2-methylpropyl)-N5-(pyridin-2-yl)-3,4-dihydro-1,4-methanopyrido[2,3-b][1, 4] diazepine-5,7(2H)-dicarboxamide], the Emax under setting [1] was over 150%. Moreover, the “TRP Activity (EC1.5, concentration of test compound that results in 150% activation of SIRT1)” value under setting [2] is on record as “B (EC1.5 1-25 μM)”.

In the case of `Cc1ncc(-c2ccnc(NC(=O)N3c4nc(C(=O)N[C@H](C)C(F)(F)F)ccc4N4CC[C@H]3C4)n2)o1` [Example 156, (4S)—N5-(4-(2-methyloxazol-5-yl)pyrimidin-2-yl)-N7-((R)-1,1,1-trifluoropropan-2-yl)-3,4-dihydro-1,4-methanopyrido[2,3-b][1,4]diazepine-5,7(2H)-dicarboxamide], the Emax under setting [1] is over 150%. Further, the “TRP Activity (EC1.5, concentration of test compound that results in 150% activation of SIRT1)” value under setting [2] is “A (EC1.5<1 μM)”.

Consider `Cc1nc(NC(=O)N2c3nc(C(=O)NC4CC4)ccc3N3CC[C@H]2C3)ccc1F` [Example 205, (4S)—N7-cyclopropyl-N5-(5-fluoro-6-methylpyridin-2-yl)-3,4-dihydro-1,4-methanopyrido[2,3-b][1,4]diazepine-5,7(2H)-dicarboxamide], for which, under setting [1], the Emax was over 150%. Further, the “TRP Activity (EC1.5, concentration of test compound that results in 150% activation of SIRT1)” value under setting [2] is “B (EC1.5 1-25 μM)”.

As to `O=C(NCC1CC1)c1ccc2c(n1)N(C(=O)Nc1ccc(F)cn1)[C@H]1CCN2C1` [Example 38, (4S)—N7-(cyclopropylmethyl)-N5-(5-fluoropyridin-2-yl)-3,4-dihydro-1,4-methanopyrido[2,3-b][1,4]diazepine-5,7(2H)-dicarboxamide], the Emax under setting [1] was over 150%. Further, the “TRP Activity (EC1.5, concentration of test compound that results in 150% activation of SIRT1)” value under setting [2] is “A (EC1.5<1 μM)”.

Take `C[C@@H](NC(=O)c1ccc2c(n1)N(C(=O)Nc1cc(C(=O)NN)ccn1)[C@H]1CCN2C1)C(F)(F)F` [Example 152, (4S)—N5-(4-(hydrazinecarbonyl)pyridin-2-yl)-N7-((R)-1,1,1-trifluoropropan-2-yl)-3,4-dihydro-1,4-methanopyrido[2,3-b][1,4]diazepine-5,7(2H)-dicarboxamide]: the Emax under setting [1] is over 150%. Further, under setting [2], the “TRP Activity (EC1.5, concentration of test compound that results in 150% activation of SIRT1)” value is recorded as “A (EC1.5<1 μM)”.

Take `CC[C@H](NC(=O)c1ccc2c(n1)N(C(=O)Nc1ccccn1)[C@H]1CCN2C1)C(F)(F)F` [Example 31, (4S)—N5-(pyridin-2-yl)-N7-((S)-1,1,1-trifluorobutan-2-yl)-3,4-dihydro-1,4-methanopyrido[2,3-b][1,4]diazepine-5,7(2H)-dicarboxamide]: the Emax under setting [1] was over 150%. Besides, the “TRP Activity (EC1.5, concentration of test compound that results in 150% activation of SIRT1)” value under setting [2] is on record as “A (EC1.5<1 μM)”.

The values are drawn from US10072011B2, “Substituted bridged urea analogs as sirtuin modulators” (GlaxoSmithKline Intellectual Property (No.2) Limited, priority 2014, dated 2018).
